What was measured:
[1] = molecular target: T1, recombinant human 17β-HSD2 (Homo sapiens, UniProt P37059); test: Inhibition of recombinant human 17β-HSD2 (conversion of 3H-estradiol to estrone, HPLC); type: biochemical; settings: inhibitor 1 μM; 50 nM estradiol, 1 mM NADH, 30 min RT
T1 construct: made in house; host or cells: Sd9 (Sf9) insect cells, baculovirus (Bac to Bac Expression System)
T1 sequence (P37059 1-387): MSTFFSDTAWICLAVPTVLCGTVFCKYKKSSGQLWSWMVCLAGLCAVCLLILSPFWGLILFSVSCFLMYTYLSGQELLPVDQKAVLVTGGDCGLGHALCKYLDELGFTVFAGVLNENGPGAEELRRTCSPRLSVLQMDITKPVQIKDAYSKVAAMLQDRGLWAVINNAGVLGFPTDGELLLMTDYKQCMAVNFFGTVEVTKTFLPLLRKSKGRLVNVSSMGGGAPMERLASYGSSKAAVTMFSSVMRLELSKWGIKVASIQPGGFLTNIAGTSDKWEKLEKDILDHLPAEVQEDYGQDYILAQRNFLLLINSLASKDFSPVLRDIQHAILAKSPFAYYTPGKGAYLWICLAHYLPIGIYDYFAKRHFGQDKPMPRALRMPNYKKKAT
Procedure: 17β-HSD2 production and isolation: Similarly to 17β-HSD1 the Recombinant baculovirus was generated by the “Bac to Bac Expression System” (Invitrogen). Recombinant bacmid was transfected to Sd9 insect cells using “Cellfectin Reagent” (Invitrogen). 60 h later cells were harvested and supernatant were fractionated by the following protocol: • cells were dissolved into 40 ml of A-buffer (40 mM TRIS, pH8.0, 20% glycerol, 20 μM NAD, 0.4 mM PMSF, 150 mM NaCl, 0.5% dodecyl-β-maltoside+protease inhibitor cocktail) • cells were sonicated • lysate was incubated on ice for 15 min • lysate was centrifuged 5000 rpm 15 min, +4° C. • centrifugation of the supernatant 180 000 g 30 min, +4° C. • pellet was dissolved into 8 ml of A-buffer • not resuspended material was removed by centrifugation 5000 rpm 15 min, +4° C. • the clear supernatant was divided into 100 μl aliquots and were stored frozen until determination of enzymatic activity.
The amount of 17β-HSD2 was analysed by immunoblotting and total protein concentration of each extract batch was determined.
Assay—Inhibition of recombinant human 17β-HSD2: Protein homogenate (4 μg/ml) was incubated in 20 mM KH2PO4 pH 8.5 with 50 nM estradiol (including 800 000 cpm/ml of ^3H-estradiol) and 1 mM […] for 30 min at RT, in the presence of the potential inhibitor at concentrations 1 μM or 0.1 μM. Inhibitor stock solutions were prepared in DMSO. Final concentration of DMSO was adjusted to 1% in all samples. The enzyme reaction was stopped by addition of 10% trichloroacetic acid (final concentration). Samples were centrifuged in a microtiter plate at 4000 rpm for 10 min. Supernatants were applied to reverse phase HPLC on a Waters Symmetry C18 column, equipped with a Waters Sentry Guard column. Isocratic HPLC runs were performed at RT at a flow rate ofl ml/min in acetonitrile:water 48:52 as running solvent. Radioactivity was monitored in the eluate by a Packard Flow Scintillation Analyzer. Total radioactivity for estrone and estradiol were determined in each sample and percent conversion of estradiol to estrone was calculated according to the following formula:
(§1) Percent inhibition was calculated flowingly: % inhibition=100−% conversion

[2] = molecular target: T2, recombinant human 17β-HSD1 (Homo sapiens, UniProt P14061); test: Inhibition of recombinant human 17β-HSD1 (conversion of 3H-estrone to estradiol, HPLC); type: biochemical; settings: inhibitor 1 μM, 30 nM estrone, 1 mM NADPH, 30 min RT; for inhibition at 1 µM: read-out: 17β-HDS1 Inhibition % at 1 μM
T2 construct: made in house; host or cells: Sd9 (Sf9) insect cells, baculovirus (Bac to Bac Expression System)
T2 sequence (P14061 1-328): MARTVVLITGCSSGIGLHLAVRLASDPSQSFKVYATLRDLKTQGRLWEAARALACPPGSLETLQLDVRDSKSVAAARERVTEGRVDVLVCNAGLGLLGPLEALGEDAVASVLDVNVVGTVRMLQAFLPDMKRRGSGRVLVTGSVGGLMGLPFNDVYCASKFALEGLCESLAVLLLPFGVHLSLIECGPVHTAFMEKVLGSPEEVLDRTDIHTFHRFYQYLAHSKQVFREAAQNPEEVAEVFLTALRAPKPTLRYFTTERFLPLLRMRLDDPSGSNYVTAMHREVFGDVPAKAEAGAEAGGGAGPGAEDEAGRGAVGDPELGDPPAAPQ
Procedure: 17β-HSD1 production and isolation: Recombinant baculovirus was generated by the “Bac to Bac Expression System” (Invitrogen). Recombinant bacmid was transfected to Sd9 insect cells using “Cellfectin Reagent” (Invitrogen). 60 h later cells were harvested; the microsomal fraction was isolated as described by Puranen, T. J., Poutanen, M. H., Peltoketo, H. E., Vihko, P. T. and Vihko, R. K. (1994) Site-directed mutagenesis of the putative active site of human 17 β-hydroxysteroid dehydrogenase type 1. Biochem. J. 304: 289-293. Aliquots were stored frozen until determination of enzymatic activity.
Assay—Inhibition of recombinant human 17β-HSD1: Protein homogenate (0.1 μg/ml) was incubated in 20 mM KH2PO4 pH 7.4 with 30 nM estrone (including 800 000 cpm/ml of ^3H-estrone) and 1 mM NADPH for 30 min at RT, in the presence of the potential inhibitor at concentrations 1 μM or 0.1 μM. Inhibitor stock solutions were prepared in DMSO. Final concentration of DMSO was adjusted to 1% in all samples. The enzyme reaction was stopped by addition of 10% trichloroacetic acid (final concentration). Samples were centrifuged in a microtiter plate at 4000 rpm for 10 min. Supernatants were applied to reverse phase HPLC on a Waters Symmetry C18 column, equipped with a Waters Sentry Guard column. Isocratic HPLC runs were performed at RT at a flow rate of 1 ml/min in acetonitrile:water 48:52 as running solvent. Radioactivity was monitored in the eluate by a Packard Flow Scintillation Analyzer. Total radioactivity for estrone and estradiol were determined in each sample and percent conversion of estrone to estradiol was calculated according to the following formula:
as §1

[3] = Metabolic stability assay; type: in vitro ADME; settings: human liver homogenate or microsomes
Procedure: The in vitro metabolic stability of the parent compounds was determined for exemplified compounds using human liver microsome and homogenate incubations. The incubation time points used with or without appropriate cofactors were 0 min and 60 min. Samples were collected at both time points and substrates were detected using LC/PDA/TOF-MS. In vitro metabolic stability (% remaining after 60 min in human liver homogenate or microsomes) of the compounds were calculated and the results are summarized in Table 4.

| Molecule | inhibition at 1 µM [1] | inhibition at 1 µM [2] | In vitro metabolic stability, % remaining after 60 min [3] | 17β-HSD2 Inhibition % at 1 μM [1] | 17β-HDS1 Inhibition % at 1 μM [2] |
| --- | --- | --- | --- | --- | --- |
| CO/N=C1\C[C@@H](CCC(=O)Nc2ncc(C)s2)C2C3CCc4cc(O)c(Br)cc4C3CC[C@]12C (stereo partly drawn) [VIV-9, 3-{(13S,15R)-2-Bromo-3-hydroxy-17-[(E)-methoxyimino]-13-methyl-7,8,9,11,12,13,14,15,16,17-decahydro-6H-cyclopenta[a]phenanthren-15-yl}-N-(5-methylthiazol-2-yl)-propanamide] | 1% | 81% | 34% |  |  |
| CO/N=C1\C[C@@H](CCC(=O)Nc2ncc(C)s2)C2C3CCc4cc(O)c(Cl)cc4C3CC[C@]12C (stereo partly drawn) [VIV-12, 3-{(13S,15R)-2-Chloro-3-hydroxy-17-[(E)-methoxyimino]-13-methyl-7,8,9,11,12,13,14,15,16,17-decahydro-6H-cyclopenta[a]phenanthren-15-yl}-N-(5-methylthiazol-2-yl)propanamide] | 3% | 95% | 94% |  |  |
| CO/N=C1\C[C@@H](CCC(=O)Nc2ncc(C)s2)C2C3CCc4c(ccc(O)c4Cl)C3CC[C@]12C (stereo partly drawn) [VIV-13, 3-{(13S,15R)-4-Chloro-3-hydroxy-17-[(E)-methoxyimino]-13-methyl-7,8,9,11,12,13,14,15,16,17-decahydro-6H-cyclopenta[a]phenanthren-15-yl}-N-(5-methylthiazol-2-yl)propanamide] | 5% | 86% |  |  |  |
| Cc1cnc(NC(=O)CC[C@@H]2C/C(=N\O)[C@@]3(C)CCC4c5cc(Br)c(O)cc5CCC4C23)s1 (stereo partly drawn) [VIV-25, 3-{(13S,15R)-2-Bromo-3-hydroxy-17-[(E)-hydroxyimino]-13-methyl-7,8,9,11,12,13,14,15,16,17-decahydro-6H-cyclopenta[a]phenanthren-15-yl}-N-(5-methylthiazol-2-yl)propanamide] | 25% | 77% |  |  |  |
| 3-{(13S,15R)-2-Fluoro-3-hydroxy-17-[(E)-methoxyimino]-13-methyl-7,8,9,11,12,13,14,15,16,17-decahydro-6H-cyclopenta[a]phenanthren-15-yl}-N-(5-methylthiazol-2-yl)propanamide [VIV-15] |  |  | 92% | 5% | 94% |
| Cc1cnc(NC(=O)CC[C@@H]2C/C(=N\O)[C@@]3(C)CCC4c5cc(Cl)c(O)c(Cl)c5CCC4C23)s1 (stereo partly drawn) [VIV-30, 3-{(13S,15R)-2,4-Dichloro-3-hydroxy-17-[(E)-hydroxyimino]-13-methyl-7,8,9,11,12,13,14,15,16,17-decahydro-6H-cyclopenta[a]phenanthren-15-yl}-N-(5-methylthiazol-2-yl)propanamide] | 23% | 87% |  |  |  |
| CO/N=C1\C[C@@H](CCC(=O)Nc2ncc(C)s2)C2C3CCc4c(cc(F)c(O)c4Br)C3CC[C@]12C (stereo partly drawn) [VIV-18, 3-{(13S,15R)-4-Bromo-2-fluoro-3-hydroxy-17-[(E)-methoxyimino]-13-methyl-7,8,9,11,12,13,14,15,16,17-decahydro-6H-cyclopenta[a]phenanthren-15-yl}-N-(5-methylthiazol-2-yl)propanamide] | 1% | 55% |  |  |  |
| 3-{(13S,15R)-4-Fluoro-3-hydroxy-17-[(E)-methoxyimino]-13-methyl-7,8,9,11,12,13,14,15,16,17-decahydro-6H-cyclopenta[a]phenanthren-15-yl}-N-(5-methylthiazol-2-yl)propanamide [VIV-16] |  |  | 68% | 7% | 90% |
| CO/N=C1\C[C@@H](CCC(=O)Nc2ncc(C)s2)C2C3CCc4c(ccc(O)c4[N+](=O)[O-])C3CC[C@]12C (stereo partly drawn) [VIV-4, 3-{(13S,15R)-3-Hydroxy-17-[(E)-methoxyimino]-13-methyl-4-nitro-7,8,9,11,12,13,14,15,16,17-decahydro-6H-cyclopenta[a]phenanthren-15-yl}-N-(5-methylthiazol-2-yl)propanamide] | 16% | 90% |  |  |  |
| CO/N=C1\C[C@@H](CCC(=O)Nc2ncc(C)s2)C2C3CCc4c(ccc(O)c4Br)C3CC[C@]12C (stereo partly drawn) [VIV-10, 3-{(13S,15R)-4-Bromo-3-hydroxy-17-[(E)-methoxyimino]-13-methyl-7,8,9,11,12,13,14,15,16,17-decahydro-6H-cyclopenta[a]phenanthren-15-yl}-N-(5-methylthiazol-2-yl)propanamide] | 6% | 78% |  |  |  |
| Cc1cnc(NC(=O)CC[C@@H]2CC(=O)[C@@]3(C)CCC4c5ccc(O)cc5CCC4C23)s1 (some centres unmarked) [VII, reference compound] |  |  | 13% |  |  |
| CO/N=C1\C[C@@H](CCC(=O)Nc2ncc(C)s2)C2C3CCc4cc(O)c(C#N)cc4C3CC[C@]12C (stereo partly drawn) [VIV-19, 3-{(13S,15R)-3-hydroxy-17-[(E)-methoxyimino]-13-methyl-2-nitrile-7,8,9,11,12,13,14,15,16,17-decahydro-6H-cyclopenta[a]phenanthren-15-yl}-N-(5-methylthiazol-2-yl)propanamide] | 2% | 93% |  |  |  |
| CO/N=C1\C[C@@H](CCC(=O)Nc2ncc(C)s2)C2C3CCc4c(ccc(O)c4C#N)C3CC[C@]12C (stereo partly drawn) [VIV-20, 3-{(13S,15R)-3-hydroxy-17-[(E)-methoxyimino]-13-methyl-4-nitrile-7,8,9,11,12,13,14,15,16,17-decahydro-6H-cyclopenta[a]phenanthren-15-yl}-N-(5-methylthiazol-2-yl)propanamide] | 0% | 73% |  |  |  |

Source: patent US10413557B2, “Prodrugs of 17.BETA.-HSD1-inhibitors” (FORENDO PHARMA LTD, priority 2014, dated 2019)
